Publication PMC7824769, “Identification of Small Molecules Blocking the Pseudomonas aeruginosa Type III Secretion System Protein PcrV” (Biomolecules, 2021)
Several values for one entry are separate records, joined by “and”; a condition that tells them apart may be missing. Identical values can stand only once.

How the values were obtained:
PcrV = PcrV (Pseudomonas aeruginosa, UniProt G3XD49); experiment: SPR dose-response binding to immobilized PcrV (equilibrium analysis); conditions: for Binding to PcrV in SPR (in words): dose-response SPR
Sequence of PcrV (G3XD49 entry or part of it): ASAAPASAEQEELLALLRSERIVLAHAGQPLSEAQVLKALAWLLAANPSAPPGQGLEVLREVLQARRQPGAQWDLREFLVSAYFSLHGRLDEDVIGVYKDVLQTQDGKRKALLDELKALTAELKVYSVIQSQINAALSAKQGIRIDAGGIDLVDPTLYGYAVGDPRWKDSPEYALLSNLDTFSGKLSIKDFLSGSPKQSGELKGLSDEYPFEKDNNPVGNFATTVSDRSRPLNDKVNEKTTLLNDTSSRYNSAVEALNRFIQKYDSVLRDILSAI
Method: The SPR screening was performed using the ProteOn^TM XPR36 Protein Interaction Array System (Bio-Rad Laboratories Inc., Hercules, CA, USA) with ProteOn GLH sensor chip (Bio-Rad Laboratories Inc., Hercules, CA, USA), and the results were analyzed with the ProteOn Manager software^TM (Bio-Rad Laboratories Inc., Hercules, CA, USA), Excel 2016 (Microsoft Office), and GraphPad Prism 7.04. All SPR experiments were performed at 25 °C. The multichannel module of the ProteOn system was in the vertical position during protein immobilization. The proteins were attached to the surface of a GLH sensor chip via amine coupling chemistry. A buffer scouting was performed to elucidate the optimal binding conditions of PcrV to the GLH sensor chip. First, channels 1–4 on the chip surface were activated using a 1:1 mixture of 40 mM 1-ethyl-3-(3-dimethylaminopropyl)carbodiimide hydrochloride (EDAC) (Bio-Rad Laboratories Inc., Hercules, CA, USA) and 10 mM N-hydroxysulfosuccinimide (sulfo-NHS, Bio-Rad Laboratories Inc., Hercules, CA, USA) for 300 s at 30 µL/min. Next, the proteins PcrV (33,398.6 Da, 6.37 mg/mL) was diluted in 10 mM NaOAc (pH 4, 4.5, and 5) to 0.05 mg/mL. PcrV was immobilized in channel 1–3 for 540 s at 30 µL/min. Channel 4 was flushed with 10 mM NaOAc (pH 5) for 540 s at 30 µL/min. As deactivating agent, a 1:1 mixture of 1 M ethanolamine and milli-Q filtered water was used. The deactivating solution was injected over all four channels for 300 s at 30 µL/min. Phosphate buffered saline with Tween (PBST; 10 mM phosphate buffer pH 7.4, 140 mM NaCl, 2.7 mM KCl, and 0.05% Tween 20) was used as the running buffer. The final amount of immobilized protein was measured in resonance units (RU) relative to the signal of the baseline prior activation. […] Immobilization of PcrV diluted in sodium acetate of pH 4.5 in one channel and of pH 5 in one channel were used in the beginning of the screening procedure (for plate 1–26). Since no difference was found between the two pH values, the PcrV protein was diluted in sodium acetate at pH 5 only (in two channels) from plate 27 and the rest of the screen. The immobilization procedure for the screening was performed as described above with the addition that the control protein carbonic anhydrase isoenzyme II from bovine erythrocytes (CAII, Sigma-Aldrich, article number 2522) was immobilized in one channel that was activated and deactivated as described above. CAII (1 mg/mL in PBS) was deactivated when diluted in 10 mM sodium acetate (pH 4) to 0.05 mg/mL. Immobilization level of the deactivated CAII was 18,000 RU. Deactivated CAII was used as a control protein according to the recommendations by the ProteOn manufacturer (Bio-Rad Laboratories Inc., Hercules, CA, USA). As running buffer, we employed PBS (pH 7.4, 0.05% Tween 20).
First, the PcrV protein was immobilized in two channels as described above while keeping a blank channel which was activated and deactivated as described above. The multichannel module of the ProteOn system was in horizontal position during the small molecule interaction studies. They were serially diluted to (400,) 200, 100, 50, 25, 12.5, 6.25, and (3.125); or 100, 50, 25, and 12.5 µM; or 100, 66.7, 44.4, 29.6, 19.7, and 13.2 µM in PBST (0.05% Tween 20) with a total concentration of 5% DMSO in 96-well plates. The running buffer was PBST (0.05% Tween 20) containing 5% DMSO. The analytes were injected at a flowrate of 100 µL/min, contact time was 60 s, and dissociation time was 60–120 s. Solvent correction was performed continuously during the experiments to account for bulk response of DMSO. The data was then baseline-aligned, processed by channel referencing with the blank channel, and solvent-corrected. The equilibrium dissociation constant (KD) values were determined from equilibrium analysis in the ProteOn Manager software^TM. Solubility problems frequently hampered KD determination since the small molecules could not always be dissolved in concentrations high enough to reach a plateau. […]

[1] = Cell toxicity control: compounds added to uninfected J774 cells; format: cell-based; conditions: mouse, uninfected J774 macrophage cells; read-out: Eukaryotic cell toxicity (viability compared to DMSO control)
Method: (§1) The cell viability assay was performed essentially as described before. J774 cells were seeded in 96-well micro-titer plates (Nunc), 100 µL/well, to a final number of 50,000 cells/well in Dulbecco’s modified Eagle’s medium (DMEM) with glutamax (Merck) supplemented with 10% fetal calf serum (FCS) and 3 µg/mL gentamicin and incubated for 16-18 h. Overnight cultures of the P. aeruginosa strains PAK and PAKpcrV [10] were grown in Luria Broth (LB) on a rotary shaker at 220 rpm at 37 °C. Prior to infection, the bacteria were diluted 1:10 in DMEM + glutamax and incubated for 1 h at 37 °C (shaking). The J774 cells were washed once with PBS, then 30 µL of DMEM with glutamax and 10% FCS supplemented with the potential binders at concentrations of 50, 100, 200, and 400 µM were added to the wells in triplicates. The infection was initiated by adding 30 µL of the diluted bacterial solutions (where the OD600 had been diluted to 0.0008) to each well to initiate infection. This infection results in a final bacterial concentration of OD600 = 0.0004 and a multiplicities of infection (MOI) of approximately 8, with final concentrations of the compounds at 25, 50, 100, and 200 µM in 60 µL of DMEM + glutamax and 5% FCS. In the primary screening, the compounds were run at one concentration (100 µM) in duplicates. As an infection control, the wild-type strain PAK with 1% DMSO was added, and as a positive control, PAKpcrV with 1% DMSO was added into four wells each. After 3 h and 30 min, 10 µL of UptiBlue Viable Cell Counting Kit (Interchime, France) was added to all wells. The infection was followed under the light microscope and the fluorescence (excitation 535 nm and emission 595 nm) was measured at 4, 5, and 6 h in a microplate reader (Synergy™ H4, Biotek). The results were calculated as percentage of living cells compared to uninfected control, where the uninfected control was set to 100% living cells and the infected control was set to 0% living cells. As a control, compounds were added to uninfected cells in a parallel experiment and viability was calculated as above to screen for cell toxicity. A compound was considered toxic if the viability was <80% of the uninfected control after 6 h of incubation and if a visual change of cell morphology was observed by microscopy. Z’ was calculated for each plate to ensure good quality throughout the screening. Only results from plates with a Z’ > 0.4 were counted. Standard deviation was calculated with Gaussian approximation when appropriate and shown as error bars in Figure 3C and Figure 4A.

uninfected J774 cells = experiment: as above; format: cell-based; conditions: 6 h incubation; for Toxicity towards eukaryotic cells, 25 µM: compound 25 µM; for Toxicity towards eukaryotic cells, 50 µM: compound 50 µM; for Toxicity towards eukaryotic cells, 100 µM: compound 100 µM; for Toxicity towards eukaryotic cells, 200 µM: compound 200 µM
Method: as §1

[2] = test system: J774 cells infected with P. aeruginosa strain PAK; experiment: cells; format: cell-based, Pseudomonas aeruginosa; conditions: Pseudomonas aeruginosa, uninfected control = 100%, infected control = 0%; for viability at 25 µM: J774, compound 25 µM, read-out: Viability Assay (% of Uninfected Control) 25 µM; for viability at 50 µM: J774, compound 50 µM, read-out: Viability Assay (% of Uninfected Control) 50 µM; for viability at 100 µM: J774, compound 100 µM, read-out: Viability Assay (% of Uninfected Control) 100 µM; for viability at 200 µM: J774, compound 200 µM
Method: as §1
The T3SS is important for P. aeruginosa infection of eukaryotic cells, and a T3SS activator mutant or a mutant lacking the T3SS tip protein PcrV are not able to infect eukaryotic cells. The macrophage cell line, J774, was infected with the wild-type P. aeruginosa strain PAK, and the potential PcrV binders were added to the wells at a final concentration of 100 µM to screen for inhibition of infection. The T3SS-mediated cytotoxic effect on the eukaryotic cells was measured by using a viability staining method (Uptiblue, Interchim), and the results were measured after 4, 5, and 6 h of infection. The pcrV-mutant (PAKpcrV), which is not able to infect macrophages due to deletion of the PcrV protein, was used as a control.

[3] = KD ± standard error of KD (Table S1), single experiment, standard error from ProteOn Manager software
[4] = SPR KD, equilibrium analysis, mean ± SD of three or more independent experiments, individual values where n < 3, 25 °C, PBST 5% DMSO

Row | SMILES | Kd (PcrV; [3]) [µM] | Kd (PcrV; [4]) | Binding to PcrV in SPR (in words) (PcrV) | viability at 6 h [1] [%] | Toxicity towards eukaryotic cells, 25 µM (uninfected J774 cells) | Toxicity towards eukaryotic cells, 50 µM (uninfected J774 cells) | Toxicity towards eukaryotic cells, 100 µM (uninfected J774 cells) | Toxicity towards eukaryotic cells, 200 µM (uninfected J774 cells) | viability at 25 µM [2] [%] | viability at 50 µM [2] [%] | viability at 100 µM [2] [%] | viability at 200 µM [2] [%]
1 | CNC(=O)CCCOc1ccc(Br)c(C)c1C [Compound 19] | 177 ± 31.6 | 121 ± 45 µM | improved or similar binding affinity | < 80 | Toxic ^e (<80% viability compared to the DMSO control) | Toxic ^e (<80% viability compared to the DMSO control) | Toxic ^e (<80% viability compared to the DMSO control) | Toxic ^e (<80% viability compared to the DMSO control) | – | – | – | –
2 | O=C(O)CCCOc1ccc(Cl)cc1Cl [Compound 1] | 124 ± 53 | < 127 µM and 95 µM | – | – | – | – | – | b (The compound is toxic^e towards eukaryotic cells, which might affect the results negatively) | 14 | 12 | 21 | 16
3 | Cc1c(Br)ccc(OCCCC(=O)NS(=O)(=O)c2ccccc2)c1C [Compound 27] | 116 ± 18 | 118 ± 62 µM | – | – | – | – | – | b (The compound is toxic^e towards eukaryotic cells, which might affect the results negatively) | 13 | 15 | 25 | -6
4 | O=C(O)CCCOc1cc(Cl)ccc1Oc1ccc(Cl)cc1Cl [Compound 17] | – | 536 µM | – | – | – | – | – | b (The compound is toxic^e towards eukaryotic cells, which might affect the results negatively) | 10 | 3 | 7 | -2
5 | Cc1c(Br)ccc(OCCCC(=O)N2CCC(C(=O)O)CC2)c1C [Compound 23] | 94.1 ± 31 | 94 µM and 103 µM | – | – | – | – | – | b (The compound is toxic^e towards eukaryotic cells, which might affect the results negatively) | 17 | 18 | 20 | 9
6 | Cc1c(Br)ccc(OCCCCO)c1C [Compound 28] | – | 127 µM and 351 µM | – | – | Toxic ^e (<80% viability compared to the DMSO control) | Toxic ^e (<80% viability compared to the DMSO control) | Toxic ^e (<80% viability compared to the DMSO control) | Toxic ^e (<80% viability compared to the DMSO control) | – | – | – | –
7 | Cc1c(Br)ccc(OCCCc2ccccc2C(=O)O)c1C [Compound 30] | 149 ± 27 | 113 ± 31 µM | – | – | – | – | – | b (The compound is toxic^e towards eukaryotic cells, which might affect the results negatively) | 16 | 25 | 21 | -16
8 | Cc1c(Br)ccc(OCCCC(N)=O)c1C [Compound 18] | 32.9 ± 5 | 42 ± 12 µM | improved or similar binding affinity | < 80 | Toxic ^e (<80% viability compared to the DMSO control) | Toxic ^e (<80% viability compared to the DMSO control) | Toxic ^e (<80% viability compared to the DMSO control) | Toxic ^e (<80% viability compared to the DMSO control) | – | – | – | –
